Patent publication US20090029992A1, “SUBSTITUTED PYRAZOLE COMPOUNDS” (priority 2007, published 2009)

How the values were obtained:
[1] = target: T1, N-terminal GST-tagged recombinant human Flt3, residues 564-end (Homo sapiens, UniProt P36888); experiment: Flt3 kinase inhibition assay (33P-ATP filter assay); format: biochemical; conditions: 40 minutes at room temperature
T1 construct: recombinant human Flt3, residues 564-end; GST (N); purchased Upstate USA Inc, 706 Forest Street, Charlottesville, Va
T1 sequence (P36888 564-993 limits assumed): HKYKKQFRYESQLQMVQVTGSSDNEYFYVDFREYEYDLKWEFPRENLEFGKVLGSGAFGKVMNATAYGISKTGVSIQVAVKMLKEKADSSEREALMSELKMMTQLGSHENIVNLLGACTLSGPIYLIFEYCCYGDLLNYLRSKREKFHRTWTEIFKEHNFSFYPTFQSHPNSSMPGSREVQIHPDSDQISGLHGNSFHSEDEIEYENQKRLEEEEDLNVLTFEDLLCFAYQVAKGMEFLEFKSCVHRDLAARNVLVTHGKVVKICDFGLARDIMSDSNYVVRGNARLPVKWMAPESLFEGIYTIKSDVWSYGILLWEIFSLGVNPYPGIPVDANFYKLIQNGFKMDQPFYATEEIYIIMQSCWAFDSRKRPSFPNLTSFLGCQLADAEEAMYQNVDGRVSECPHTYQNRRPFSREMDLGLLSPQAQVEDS
In short: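 Serial compound dilutions incubated 40 min at room temperature with 5-10 mU Flt3 kinase, 50 μM peptide substrate and [γ-33P]ATP/10 mM magnesium acetate, pH 7.0. Phosphoric acid stop, filter capture and scintillation counting; activity compared with uninhibited reactions.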

[2] = target: T2, N-terminal His6-tagged recombinant human KDR, residues 790-end (Homo sapiens, UniProt P35968); experiment: KDR kinase inhibition assay (33P-ATP filter assay); format: biochemical
T2 construct: recombinant human KDR, residues 790-end; His6 (N); purchased Upstate USA Inc, 706 Forest Street, Charlottesville, Va
In short: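 His6-tagged human KDR (residues 790-end, 5-10 mU) with 0.33 mg/mL myelin basic protein in 8 mM MOPS pH 7.0, 0.2 mM EDTA, 10 mM magnesium acetate and [γ-33P]ATP; 40 min at room temperature. Stopped with phosphoric acid, filter-bound 33P counted; inhibition relative to no-inhibitor controls.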

HCT116 cells = experiment: Whole cell cytotoxicity assay, Sulforhodamine B; format: cell-based; conditions: Homo sapiens, HCT-116, HCT116, 96 hours incubation, SRB; for GI50: read-out: GI50 HCT116 cell growth; for IC50: read-out: IC50 values in this assay (HCT116 cell growth)
In short: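 HCT116 cells (500/well) in DMEM/10% FBS/2 mM glutamine were preincubated 24 h, then exposed to compound for 96 h at 37 °C, 5% CO2, in duplicate. Cells were fixed with TCA and stained with sulforhodamine B (A570). GI50, TGI and LC50 were derived relative to a time-zero plate and an untreated control.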

[3] = group with IC50 greater than 100 nM

T2 sequence (P35968 790-1356 limits assumed): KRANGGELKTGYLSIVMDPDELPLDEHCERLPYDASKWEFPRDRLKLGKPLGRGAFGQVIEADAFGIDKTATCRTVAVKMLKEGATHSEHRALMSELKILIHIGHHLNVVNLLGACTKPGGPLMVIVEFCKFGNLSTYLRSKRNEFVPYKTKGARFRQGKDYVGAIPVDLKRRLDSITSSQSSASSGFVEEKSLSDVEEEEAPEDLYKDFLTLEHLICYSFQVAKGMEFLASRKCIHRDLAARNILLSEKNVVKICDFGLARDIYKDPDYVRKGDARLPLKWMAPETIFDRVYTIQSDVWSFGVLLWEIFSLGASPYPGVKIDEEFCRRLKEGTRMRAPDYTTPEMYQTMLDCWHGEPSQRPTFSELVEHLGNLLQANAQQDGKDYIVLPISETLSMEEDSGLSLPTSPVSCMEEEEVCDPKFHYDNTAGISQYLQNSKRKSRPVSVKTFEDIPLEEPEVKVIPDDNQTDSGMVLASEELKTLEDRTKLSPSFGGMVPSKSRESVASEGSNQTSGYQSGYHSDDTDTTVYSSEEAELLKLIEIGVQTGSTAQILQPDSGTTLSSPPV

Row | SMILES | IC50 [1] | IC50 ([2]; 40 minutes at room temperature) | IC50 [2, 3] | GI50 (HCT116 cells) | IC50 (HCT116 cells)
1 | Cc1cc(Nc2cc(N3CCN(C)CC3)nc(-c3cc(F)ccc3C)n2)n[nH]1 [Example 196, 2-(5-fluoro-2-methylphenyl)-N-(5-methyl-1H-pyrazol-3-yl)-6-(4-methylpiperazin-1-yl)pyrimidin-4-amine] | ≤ 100 nM | ≤ 100 nM |  | ≤ 1000 nM | 
2 | COc1ccc(F)c(-c2nc(Nc3cc(C)[nH]n3)cc(N3CCN(C)CC3)n2)c1 [Example 197, 2-(2-fluoro-5-methoxyphenyl)-N-(5-methyl-1H-pyrazol-3-yl)-6-(4-methylpiperazin-1-yl)pyrimidin-4-amine] | ≤ 100 nM | ≤ 100 nM |  | ≤ 1000 nM | 
3 | Cc1cc(Nc2cc(N3CCN(C)CC3)nc(-c3cccc(F)c3F)n2)n[nH]1 [Example 200] | ≤ 100 nM | ≤ 100 nM |  | ≤ 1000 nM | 

Second part, led by results:

Row | IC50 [1] | IC50 ([2]; 40 minutes at room temperature) | IC50 [2, 3] | SMILES | GI50 (HCT116 cells) | IC50 (HCT116 cells)
4 | ≤ 100 nM |  | ≤ 1000 nM | Cc1ccc(C)c(-c2nc(Nc3cc(C)[nH]n3)cc(N3CCN(C)CC3)n2)c1 [Example 201, 2-(2,5-dimethylphenyl)-N-(5-methyl-1H-pyrazol-3-yl)-6-(4-methylpiperazin-1-yl)pyrimidin-4-amine] |  | 1 to 10 µM
5 | ≤ 100 nM | ≤ 100 nM |  | Cc1cc(Nc2cc(N3CCN(C)CC3)nc(-c3cccc4ccoc34)n2)n[nH]1 [Example 203, 2-(benzofuran-7-yl)-N-(5-methyl-1H-pyrazol-3-yl)-6-(4-methylpiperazin-1-yl)pyrimidin-4-amine] |  | 1 to 10 µM
6 | ≤ 100 nM |  | ≤ 1000 nM | Cc1cc(Nc2cc(NC3CCOCC3)nc(-c3cccc4ccoc34)n2)n[nH]1 [Example 204, 2-(benzofuran-7-yl)-N^4-(5-methyl-1H-pyrazol-3-yl)-N^6-(tetrahydro-2H-pyran-4-yl)pyrimidine-4,6-diamine] |  | 1 to 10 µM
7 | ≤ 100 nM |  | ≤ 1000 nM | Cc1cc(Nc2cc(N(C)CCN(C)C)nc(-c3cccc4ccoc34)n2)n[nH]1 [Example 205, 2-(benzofuran-7-yl)-N^4-(2-(dimethylamino)ethyl)-N^4-methyl-N^6-(5-methyl-1H-pyrazol-3-yl)pyrimidine-4,6-diamine] |  | 1 to 10 µM
